# Data reported in patent publication US20160324884A1, “TREATMENT OF DIABETES WITH PENTACYCLIC TRITERPENOID SAPONIN COMPOUNDS FROM SZECHUAN MELANDIUM ROOT” (priority 2013, published 2016).
# “Also recorded” adds a separate entry of the source.
# Assays:
# KK^Ay mice [1] = assay: Glycemia in KK^Ay mice during treatment and after withdrawal (Example 3); assay type: in vivo; conditions: for descending rates of blood glucose: T2DM mice, 2 mg/kg, two weeks after subcutaneous injection
# From the text: (§1) 60 male KK^Ay mice (12 weeks of age, License NO. SCXK (BJ) 2009-0015, Beijing Huafukang Biology Technology Co. Ltd.) and 10 normal male C57BL/6 mice (12 weeks of age, License NO. SCXK (BJ) 2009-0015, Beijing Huafukang Biology Technology Co. Ltd.) were adaptively bred for one week, and then used in the following experiment.
# (§2) 60 KK^Ay mice were adaptively bred for 1 week, and then randomly assigned into 6 groups: Model group, Compound (1) group, Compound (2) group, Compound (3) group, Compound (4) group, and metformin group, 10 mice per group. 10 normal C57BL/6 mice were used for the control group. KK^Ay mice were in a high-fat diet, and the control normal mice were in a normal control diet. The control and model groups were hypodermically injected with sterile water, the 6 medicated groups mice were subcutaneously injected with […] Wacao saponins, (Compounds (1), (2), (3) and (4)) respectively, and the positive group was administered metformin by gavage. All mice were administrated at 9 am for 2 weeks and the administration volume is 10 ml/kg BW.
# (§3) Compound (1), (2), (3) and (4) were respectively dissolved into sterile water, and sterilized with filtration for Sc. to the medication groups. The metformin was dissolved into sterile water for lg. to the positive control group. Control and model groups animals were injected with sterile water (10 ml/kg BW), Sc. All the animals were treated daily at 9 am for 2 weeks (14 days).
# (§4) Blood detection: Blood glucose was measured weekly. Overnight fasting glycemia level was measured with One Touch ULTRA Glucometer for the tail blood test. At the end of the experiment, blood serum was collected for measuring levels of fasting blood glucose and insulin, and the insulin sensitivity index (ISI) was calculated. At the same time, hepatic tissues and skeletal muscles of mice were taken out to determine levels of hepatic and muscle glycogen by detection kits.
# Termination of the experiment After administrating mice for 2 weeks (14 days), the experiment was terminated.
# This experiment is to observe the anti-hyperglycemia effects of Wacao saponins on KK^Ay mice during and after the period of drug treatment, respectively.
# KK^Ay mice [2] = assay: Hepatic and muscle glycogen in KK^Ay mice (Example 3); assay type: in vivo; conditions: 2.0 mg/kg Sc, after 2 weeks, vs model group
# From the text: as §2
# (§5) The body weight, food and water intake of each mouse was measured and recorded weekly throughout the course of the experiment. At the end of the experiment, collected the blood and separated serum, fasting blood glucose, insulin levels and insulin sensitivity index (ISI) were measured or calculated in each group. Liver, skeletal muscles of mice in each group were taken and weighed for detecting glycogen levels of the hepatic and muscles after mice being killed.
# as §3, §4
# normal ICR mice = assay: Glycemia in normal ICR mice (Example 4); assay type: in vivo; conditions: 2.0 mg/kg Sc, after 2 weeks, vs control group
# From the text: 40 male ICR mice (20-22g, License NO. SCXK (BJ) 2011-0004, Beijing SPF Experimental Animal Technology Co. Ltd.) were adaptively bred for one week, and then used in the following experiment.
# Animals were housed individually in wood-chip-bedded plastic cages and fed the standard laboratory chow. All the animals had ad libitum access to food and water.
# 40 ICR mice were adaptively bred for 1 week, and then randomly assigned into 4 groups: Model, Compound (1), Compound (2) and metformin group, 10 mice per group. All the animals were fed with normal food. Mice in the control group were hypodermically injected with sterile water. The treated groups were subcutaneously injected with Compounds (1) and (2), respectively. And the positive group was administrated metformin by gavage. All the animals were administrated at 9 am for 2 weeks, and the dose volume is 10 ml/kg BW.
# Compound (1) and (2) were respectively dissolved into sterile water, and sterilized with filtration for Sc. The metformin was dissolved into sterile water for lg. to the positive control group. Mice in the control group were injected with sterile water (10 ml/kg BW), Sc. All the animals were treated at 9 am for 2 weeks (14 days).
# Blood detection: Blood glucose was measured weekly. Overnight fasting glycemia was measured by One Touch ULTRA Glucometer (LifeScan Johnson and Johnson, USA) for the tail blood test.
# End of the experiment: After mice being administrated for 2 weeks (14 days), the experiment was terminated.
# T2DM rats [3] = assay: Fasting glycemia in T2DM model rats (high-fat emulsion + STZ, Example 5); assay type: in vivo, SD rats
# From the text: 50 male SD rats (180-200 g, License NO. SCXK (BJ) 2011-0004, Beijing SPF Experimental Animal Technology Co. Ltd.) were adaptively bred for 1 week, and then used in the pharmacological experiment.
# Animals were housed individually in wood-chip-bedded plastic cages and fed a standard laboratory chow. All the animals had ad libitum access to food and water.
# (§6) 50 SD rats were adaptively bred for 1 week, and then randomly assigned into 5 groups: The control group, model group, Compound (1) group, Compound (2) group and glucobay group (the positive group), 10 rats per group. All the animals were in a standard laboratory diet. Control and model group animals were hypodermically injected with sterile water, test compound treatment groups were subcutaneously injected with the Compounds (1) and (2), and the positive group was administrated glucobay solution by gavage. All the animals were administrated at 9 am for 2 weeks, and the dose volume is 10 ml/kg BW.
# (§7) The Compounds (1) and (2) were dissolved into sterile water, and sterilized with filtration, Sc. Glucobay was dissolved into sterile water, lg. Animals in the control and model groups were injected with sterile water (10 ml/kg BW), Sc. All the animals were treated at 9 am for 2 weeks (14 days).
# (§8) All rats except the control group were administrated intragastrically with the high-fat emulsion (10 ml/kg) and weighed the body weight weekly. After weeks of administration, rats were intraperitoneally injected with streptozotocin (STZ, dissolved in citric acid-citrate sodium solution, pH 4.2, freshly prepared and used instantly, and store away from light) (30mg/kg). 4 days later, blood glucose level in rats was measured by tail blood test. Diabetes was defined as fasting blood glucose level>11.1 mmol/Lin in this experiment.
# The blood glucose level was measured before and after administration of the treatment compounds for 2 weeks, respectively. The animals were fasted overnight and tail blood samples were taken. Fasting glycemia was measured by using One Touch ULTRA Glucometer or kits.
# T2DM rats [4] = assay: Glycosylated serum protein (GSP) and liver and muscle glycogen in T2DM rats (Example 5); assay type: in vivo, SD rats; conditions: 4.0 mg/kg Sc vs glucobay 20 mg/kg lg
# From the text: as §6, §7
# as §8, with “Diabetes was defined as fasting blood glucose level>11.1 mmol/Lin in this experiment.” left out
# KK^Ay mice [5] = assay: Effects of Wacao saponins on glycemia in KK^Ay T2DM mice (Example 2); assay type: in vivo; conditions: for glycemia (fasting tail blood glucose), hypoglycemic activity: after 1 week; for anti-hyperglycemia effect, compounds compared with each other: 2.0 mg/kg BW Sc, 2 weeks, ranking
# From the text: as §1, with “80” for “60”, “10 male” for “10”, “normal” for “normal male”, “pharmacological” for “following”
# The animals were housed individually in wood-chip-bedded plastic cages. Germ-free and high-fat diets (Beijing Huafukang Biology Technology Co. Ltd.) were used to feed the KK^Ay mice, and the standard laboratory chows were used to feed normal C57BL/6 mice. All the animals had free access to food and water.
# 80 KK^Ay mice were adaptively bred for 1 week, and then randomly assigned into 8 groups: Model group, Compound (1) group, Compound (2) group, Compound (3) group, Compound (4) group, Compound (7) group, Compound (8) group and metformin group, 10 mice per group. 10 normal C57BL/6 mice were used as the control group. KK^Ay mice were fed with the high-fat diet, and the control group was fed with the normal control diet. The control and model groups were hypodermically injected with sterile water, 6 medicated groups were hypodermically injected with 6 kinds of Wacao saponins, the Compounds (1), (2), (3), (4), (7) and (8), and the positive group (metformin group) was irrigated per oral. All groups were administrated at 9 am for 2 weeks. The administrating volume is 10 ml/kg BW and the administration dosage is shown in Table3.
# All mice of the fasting tail blood glucose level were measured weekly using One Touch ULTRA Glucometer (Life Scan Johnson and Johnson, USA).
# Each compound of Wacao saponins was dissolved into sterile water and sterilized with filtration for Sc. The metformin was dissolved into sterile water for lg. The control and model group mice were injected with sterile water, Sc. All the animals were treated at 9 am for 2 weeks.
# Overnight fasting tail blood glucose level was measured weekly using One Touch ULTRA Glucometer and measured for twice.
# Each group was administrated for 2 weeks (14 days) and then the experiment was terminated.
# Results are expressed as means±SD. Statistical analysis were analyzed by using SPSS 10.0 software. Data were evaluated with analysis of variance.
# KK^Ay mice [6] = assay: Body weight, food and water intake in KK^Ay mice (Example 3); assay type: in vivo; conditions: after 1 week, compounds 2.0 mg/kg Sc, metformin 500 mg/kg lg, vs model group
# From the text: as §1
# The animals were housed individually in wood-chip-bedded plastic cages. Germ-free and high-fat diets (Beijing Huafukang Biology Technology Co. Ltd.) were used to feed the KK^Ay mice. All the animals had free access to food and water.
# as §2, §5, §3
# Measurement of food and water intake: 24 hours' food and water intake were measured by gravimetry once a week. It should be paid attention to recycling leakage of small forage into the feed box to ensure the accuracy of food intake.
# Determination of body weight: The body weight of mice was measured and recorded once a week.
# Results are shown as means±SD. Statistical analysis data were analyzed by using SPSS 10.0 software. Data were evaluated with analysis of variance.
# [7] = 2.0 mg/kg BW Sc daily, vs model group
Molecule,descending rates of blood glucose (KK^Ay mice [1]) [%],muscle glycogen level (KK^Ay mice [2]),"glycemia (fasting tail blood glucose), hypoglycemic activity (KK^Ay mice [5]; [7])","anti-hyperglycemia effect, compounds compared with each other (KK^Ay mice [5])",other results
"CC(=O)OC1C(OC(=O)/C=C\c2ccc(C)cc2)C(C)OC(OC(=O)[C@@H]2CC(C)(C)C[C@@H]3C2[C@H](O)C[C@]2(C)C3C=C[C@@H]3[C@@]4(C)CC[C@H](OC5OC(C(=O)O)C(O)C(OC6OCC(O)C(O)C6O)C5OC5OC(CO)C(O)C(O)C5O)[C@@](C)(C=O)[C@@H]4CC[C@]32C)C1OC1OC(C)C(O)C(O)C1O (stereo partly shown) [Compound (2), sinocrassuloside VII]",60,stronger efficacy in raising levels muscle glycogen,"then followed by Compound (2), Compound (4), Compound (3) and Compound (7)",strongest anti-hyperglycemia effect,"glycemia level (normal ICR mice): decreased much obviously; anti-hyperglycemia efficacy compared with glucobay (T2DM rats [3]; 4.0 mg/kg Sc vs glucobay 20 mg/kg lg, 2 weeks): stronger than glucobay; glycemia level (T2DM rats [3]; 4.0 mg/kg Sc, after 2 weeks, vs model group): significantly decreased; effect on glycogen levels and GSP levels compared with glucobay (T2DM rats [4]): better effect on up-regulating of glycogen levels and down-regulating of GSP levels; also recorded: superior to that of glucobay; also recorded: stronger than glucobay"
"COC(=O)C1OC(O[C@H]2CC[C@]3(C)[C@H]4C=CC5[C@@H]6CC(C)(C)C[C@@H](C(=O)OC7OC(C)C(OC(=O)/C=C/c8ccc(C)cc8)C(OC(C)=O)C7OC7OC(C)C(O)C(O)C7O)C6[C@H](O)C[C@@]5(C)[C@]4(C)CC[C@H]3[C@]2(C)C=O)C(OC2CC(CO)C(O)C(O)C2O)C(OC2OCC(O)C(O)C2O)C1O (stereo partly shown) [Compound (3), sinocrassuloside VIII]",60,weaker efficacy in raising level of muscle glycogen which had no statistical significant difference compared with that of the model group,"then followed by Compound (2), Compound (4), Compound (3) and Compound (7)","followed by Compound (3) and (4) (cis-trans-isomers), and Compound (7)",
"CN(C)C(=N)N=C(N)N [metformin, reference compound]",,,,,"glycemic level after drug withdrawal (KK^Ay mice [1]; KK^Ay mice, 2 weeks after stopping 2-week medication, vs model (untreated) group): rebounded to a high level which showed no significant difference compared with that of the model group; food intake (KK^Ay mice [6]): decreased obviously"
sinocrassuloside XII [Compound (7)],,,"then followed by Compound (2), Compound (4), Compound (3) and Compound (7)","followed by Compound (3) and (4) (cis-trans-isomers), and Compound (7)",
sinocrassuloside XIII [Compound (8)],,,,no significant effect of anti-hyperglycemia compared with that of the other compounds,"glycemia (fasting tail blood glucose), hypoglycemic activity (KK^Ay mice [5]; 2.0 mg/kg BW Sc daily, vs model group, 2 mg/kg): weakest hypoglycemic activity which has no significant difference compared with that of the model group; also recorded: only the trend of anti-hyperglycemia activity, but showed no statistical difference; glycemia (fasting tail blood glucose) (KK^Ay mice [5]; 2.0 mg/kg BW Sc daily, after 2 weeks, vs model group): Significant differences appeared"
